Key:
CDK7 = target: T1, CDK7 (Homo sapiens, UniProt P50613); experiment: CDK7 enzyme inhibition test; type: biochemical; settings: Ki=IC50/(1+S/Km); 33P bound to MBP, [γ-33P]ATP, 30° C. for 20 minutes; read-out: Ki value of CDK7 inhibitory activity
T1 construct: purchased Carna Biosciences, Inc. 04-108
Summary of the method: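 Recombinant CDK7 with MBP substrate and [γ-33P]ATP (500 μM solution, diluted into the mix) in HEPES pH 7.4/DTT/Triton X-100/MgCl2, 20 min at 30 °C. TCA-precipitated 33P-MBP counted by scintillation; IC50 from inhibition, Ki = IC50/(1+S/Km).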

[1] = system: human large intestine cancer cell line (HCT-116); experiment: Human large intestine cancer (HCT-116) cell growth inhibition test; type: cell-based; settings: 72 h, HCT-116, culture for 3 days, sulforhodamine B absorbance
Summary of the method: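 HCT-116 cells seeded at 1.0×10^3 cells/well in McCoy's 5a with 10% FBS, then exposed to compound (0.1% DMSO final) for 3 days. Growth measured by sulforhodamine B absorbance; IC50 derived from concentration-inhibition data.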

[2] = system: IL-2 production in human peripheral blood mononuclear cell (PBMC); experiment: Human PBMC CD3/CD28-induced IL-2 production inhibition test; type: cell-based; settings: 48 h, CD3/CD28 stimulation, incubation for 2 days, ELISA
Text: Human Peripheral Blood Mononuclear Cell (PBMC) CD3/CD28-Induced IL-2 Production Inhibition Test
PBMC was separated and collected by using Ficoll-Paque (17-1440-02 manufactured by GE Healthcare Japan Corp.) from blood collected from healthy human adult in the presence of heparin. RPMI1640 medium (manufactured by GIBCO/Thermo Fisher Scientific, Inc., REF. 11875) containing 10% FBS (manufactured by GIBCO/Thermo Fisher Scientific, Inc. REF. 10082) and containing a test compound dissolved in DMSO and 2 μg/mL anti-hCD28 (manufactured by R&D Systems, Inc., Cat. No. MAB342) was added at 100 μL/well to T cell Activation Plate Anti-Human CD3 96-well plate (manufactured by Corning Inc., REF. 354725), and subsequently, a PBMC suspension adjusted such that the number of cells was 2×10^6 cells/mL was added at 100 μL/well (final DMSO concentration: 0.1%). A RPMI1640 medium containing 10% FBS and containing 0.1% DMSO and 2 μg/mL anti-hCD28 was similarly added to wells not supplemented with the test compound. After incubation for 2 days in a carbon dioxide incubator, the culture supernatant was collected. The collected culture supernatant was stored at −20° C. until IL-2 content measurement.
In the measurement of IL-2 content in the culture supernatant, a sandwich ELISA kit Quantikine Human IL-2 (manufactured by R&D Systems, Inc., Cat. No. S2050) was used. The IL-2 content of each sample was calculated from the calibration curve of Standard IL-2 included in the kit. When the amount of IL-2 produced by CD3/CD28 stimulation in the case of the addition of only DMSO was defined as 100%, the rate of inhibition of IL-2 production at each concentration of the test compound was calculated. A test compound concentration inhibiting 50% of IL-2 production was calculated as an IC50 value (nM) from the concentration of the added test compound and the rate of inhibition of IL-2 production by the test compound by using EXSUS (version 8.0.0 or version 8.0.1, manufactured by CAC Exicare Corp.).

[3] = system: Human keratinocytes (NHEK-Neo Pooled); experiment: Human keratinocyte growth inhibition assay; type: cell-based; settings: 48 h, culture for 2 days, Cell Counting Kit-8
Procedure: Human Keratinocyte Growth Inhibition Assay
The measurement of a human keratinocyte growth inhibitory effect was carried out by modifying the method of Schafer et al. (British Journal of Pharmacology, 159, 842 (2011)).
Human keratinocytes (NHEK-Neo Pooled, manufactured by Lonza Group AG, Cat. No. 00192906) were cultured in KGM-Gold Bullet Kit (manufactured by Lonza Group AG, Cat. No. 00192060) and inoculated at 2.0×10^3 cells/well to a 96-well plate. After overnight culture in a carbon dioxide incubator, a test compound dissolved in DMSO (final DMSO concentration: 0.1%) was added and left standing in a carbon dioxide incubator. After culture for 2 days, the absorbance thereof was measured by using Cell Counting Kit-8 (343-07623 manufactured by Dojindo Laboratories)).
The rate of inhibition of cell growth at each concentration was calculated from the test compound concentration and the absorbance of Cell Counting Kit-8, and the concentration of the test compound necessary for inhibiting 50% of cell growth (IC50 value) was calculated by using EXSUS (version 8.0.0 or version 8.0.1, manufactured by CAC Exicare Corp.).

[4] = system: IL-6 production in rat adjuvant arthritis model; experiment: IL-6 production inhibition test in rat adjuvant arthritis model; type: in vivo, LEW rats; settings: single dose, administration of 10 mg/kg, left ankle, read-out: rate of inhibition of IL-6 production
Procedure: IL-6 Production Inhibition Test in Rat Adjuvant Arthritis Model
A single-dose drug efficacy test using rat adjuvant arthritis models was carried out by modifying the method of Magari. K et al. (J. Rheumatol. 30 (10), 2193 (2003)).
LEW rats (female, supplied by Charles River Laboratories Japan, Inc.) were used as laboratory animals. An adjuvant prepared from heat-killed bacteria of Mycobacterium butyricum (264010 manufactured by Difco Laboratories Ltd.) and liquid paraffin (manufactured by Wako Pure Chemical Industries, Ltd., Code No. 128-04375) was subcutaneously administered as a phlogogenic material to the right hind leg footpads of the rats under inhalation anesthesia with isoflurane (manufactured by Wako Pure Chemical Industries, Ltd., Code No. 099-06571) to prepare arthritis models. Approximately 2 weeks later, left paw edema was measured with a paw volume meter (model TK-101CMP manufactured by Unicorn Co., Ltd.), and grouping was performed such that the average volume of left paw edema was equal among groups. A test compound or only a solvent was administered, after a certain time, they were sacrificed by exsanguination from the abdomens under isoflurane anesthesia, and the left ankles were collected, chopped, and frozen by using liquid nitrogen. The collected left ankle portions were disrupted in CRYOPress (model CP-100WP manufactured by Microtec Co., Ltd.), then supplemented with a buffer solution, shaken overnight at 4° C., and then centrifuged to collected a supernatant. The preparation of the buffer solution was performed by mixing a Tris buffer solution (pH 7.4), sodium chloride (NaCl), phenyl methyl sulfonyl fluoride (PMSF), Triton X-100, EDTA-free complete tablets (manufactured by F. Hoffmann-La Roche, Ltd., REF. 11 873 580 001), and Otsuka distilled water (manufactured by Otsuka Pharmaceutical Co., Ltd., product No. 1323). IL-6 in the collected supernatant was measured by using a sandwich ELISA kit (manufactured by R&D Systems, Inc., Catalog No. S6050).
The IL-6 content of each sample was calculated from the calibration curve of Standard IL-6 included in the kit. When the amount of IL-6 produced in the solvent administration control group was defined as 100%, the rate of inhibition of IL-6 production (%) at each dose of the test compound was calculated.

T1 sequence (P50613 whole entry): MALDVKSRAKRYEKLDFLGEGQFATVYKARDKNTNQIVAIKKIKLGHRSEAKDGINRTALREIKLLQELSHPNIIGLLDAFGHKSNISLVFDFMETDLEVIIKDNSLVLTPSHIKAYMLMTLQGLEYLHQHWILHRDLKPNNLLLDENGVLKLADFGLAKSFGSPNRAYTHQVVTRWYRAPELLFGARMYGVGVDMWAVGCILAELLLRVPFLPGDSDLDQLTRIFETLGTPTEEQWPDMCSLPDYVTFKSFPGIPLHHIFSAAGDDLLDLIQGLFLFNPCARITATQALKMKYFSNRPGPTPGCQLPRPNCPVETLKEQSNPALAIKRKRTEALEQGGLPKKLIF
T1 sequence (P51946 whole entry partner): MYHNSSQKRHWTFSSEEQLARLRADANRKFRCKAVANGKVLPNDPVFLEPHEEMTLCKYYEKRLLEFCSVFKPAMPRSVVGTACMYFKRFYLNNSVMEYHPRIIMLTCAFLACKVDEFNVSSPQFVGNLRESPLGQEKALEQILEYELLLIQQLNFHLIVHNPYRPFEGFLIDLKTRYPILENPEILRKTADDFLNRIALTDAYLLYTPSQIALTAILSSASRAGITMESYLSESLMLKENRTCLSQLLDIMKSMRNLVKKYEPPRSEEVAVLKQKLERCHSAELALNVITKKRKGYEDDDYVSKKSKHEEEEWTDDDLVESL
T1 sequence (P51948 whole entry partner): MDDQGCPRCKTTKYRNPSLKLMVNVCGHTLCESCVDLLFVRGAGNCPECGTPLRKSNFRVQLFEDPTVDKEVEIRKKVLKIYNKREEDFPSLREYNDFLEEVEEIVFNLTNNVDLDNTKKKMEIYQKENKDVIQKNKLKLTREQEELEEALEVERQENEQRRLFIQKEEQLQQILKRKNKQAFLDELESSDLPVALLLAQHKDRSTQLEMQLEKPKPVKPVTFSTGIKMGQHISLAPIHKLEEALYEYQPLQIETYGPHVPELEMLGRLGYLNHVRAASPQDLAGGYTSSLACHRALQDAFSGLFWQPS

CC(C)(O)[C@@H](NC(=O)N1Cc2c(NC(=O)C3([Si](C)(C)C)CC3)n[nH]c2C1(C)C)c1ccccc1 [III-170, (S)—N-(2-Hydroxy-2-methyl-1-phenylpropyl)-6,6-dimethyl-3-[1-(trimethylsilyl)cyclopropanecarboxamido]-4,6-dihydropyrrolo[3,4-c]pyrazole-5(1H)-carboxamide]
Ki (CDK7): ≤ 50 nM | IC50 [1]: ≤ 500 nM | IC50 [2]: ≤ 50 nM | IC50 [3]: ≤ 500 nM

CC1(C)c2[nH]nc(NC(=O)C3([Si](C)(C)C)CC3)c2CN1C(=O)N[C@H](CCO)c1ccccc1 [III-226, (R)—N-(3-Hydroxy-1-phenylpropyl)-6,6-dimethyl-3-[1-(trimethylsilyl)cyclopropanecarboxamido]-4,6-dihydropyrrolo[3,4-c]pyrazole-5(1H)-carboxamide]
Ki (CDK7): ≤ 50 nM | IC50 [1]: ≤ 500 nM | IC50 [2]: ≤ 50 nM | IC50 [3]: ≤ 500 nM

COCC[C@@H](NC(=O)N1Cc2c(NC(=O)C3([Si](C)(C)C)CCC3)n[nH]c2C1(C)C)c1ccccc1 [IV-235, (R)—N-(3-Methoxy-1-phenylpropyl)-6,6-dimethyl-3-[1-(trimethylsilyl)cyclobutanecarboxamido]-4,6-dihydropyrrolo[3,4-c]pyrazole-5(1H)-carboxamide]
IC50 [1]: ≤ 500 nM | IC50 [2]: ≤ 50 nM | IC50 [3]: ≤ 500 nM | inhibition in vivo at 10 mg/kg [4]: ≥ 50%
